System: rodent lifetime carcinogenesis bioassay, tumor incidence TD50
Experiment: chronic cancer bioassays in animals – CPDB, compiled studies (AID 1745844)
Settings: inhaled

## C=CC=C
mouse, strain B6C3F1, males, site: liver, lesion: hepatocellular adenoma + hepatocellular carcinoma + neoplastic nodule, dosed 60 weeks, study length 60 weeks
  TD50: 541 mg/kg/day
mouse, strain B6C3F1, males, site: liver, lesion: hepatocellular adenoma + hepatocellular carcinoma + neoplastic nodule, dosed 82 weeks, study length 104 weeks
  TD50: 23.9 mg/kg/day
mouse, strain B6C3F1, males, site: liver, lesion: hepatocellular adenoma + hepatocellular carcinoma, dosed 13 weeks, study length 104 weeks
  TD50: 15.1 mg/kg/day
mouse, strain B6C3F1, males, site: liver, lesion: hepatocellular adenoma + hepatocellular carcinoma, dosed 26 weeks, study length 104 weeks
  TD50: 23.8 mg/kg/day
mouse, strain B6C3F1, males, site: liver, lesion: hepatocellular adenoma + hepatocellular carcinoma, dosed 40 weeks, study length 104 weeks
  TD50: 16.8 mg/kg/day
mouse, strain B6C3F1, males, site: liver, lesion: hepatocellular adenoma + hepatocellular carcinoma, dosed 52 weeks, study length 104 weeks
  TD50: 14.6 mg/kg/day
mouse, strain B6C3F1, males, site: liver, lesion: hepatocellular adenoma + hepatocellular carcinoma, dosed 82 weeks, study length 104 weeks
  TD50: 23.9 mg/kg/day
mouse, strain B6C3F1, males, site: liver, lesion: hepatocellular adenoma, dosed 13 weeks, study length 104 weeks
  TD50: 17.9 mg/kg/day
mouse, strain B6C3F1, males, site: liver, lesion: hepatocellular adenoma, dosed 26 weeks, study length 104 weeks
  TD50: 27.8 mg/kg/day
mouse, strain B6C3F1, males, site: liver, lesion: hepatocellular adenoma, dosed 40 weeks, study length 104 weeks
  TD50: 18 mg/kg/day
mouse, strain B6C3F1, males, site: liver, lesion: hepatocellular adenoma, dosed 52 weeks, study length 104 weeks
  TD50: 15.8 mg/kg/day
mouse, strain B6C3F1, males, site: liver, lesion: hepatocellular adenoma, dosed 82 weeks, study length 104 weeks
  TD50: 34.1 mg/kg/day
mouse, strain B6C3F1, males, site: liver, lesion: hepatocellular carcinoma, dosed 13 weeks, study length 104 weeks
  TD50: 23.4 mg/kg/day
mouse, strain B6C3F1, males, site: liver, lesion: hepatocellular carcinoma, dosed 26 weeks, study length 104 weeks
  TD50: 60 mg/kg/day
mouse, strain B6C3F1, males, site: liver, lesion: hepatocellular carcinoma, dosed 40 weeks, study length 104 weeks
  TD50: 62 mg/kg/day
mouse, strain B6C3F1, males, site: liver, lesion: hepatocellular carcinoma, dosed 52 weeks, study length 104 weeks
  TD50: 47 mg/kg/day
mouse, strain B6C3F1, males, site: liver, lesion: hepatocellular carcinoma, dosed 82 weeks, study length 104 weeks
  TD50: 34.4 mg/kg/day
mouse, strain B6C3F1, males, site: lung, lesion: alveolar/bronchiolar adenoma + alveolar/bronchiolar carcinoma + adenocarcinoma, dosed 13 weeks, study length 104 weeks
  TD50: 8.59 mg/kg/day
mouse, strain B6C3F1, males, site: lung, lesion: alveolar/bronchiolar adenoma + alveolar/bronchiolar carcinoma + adenocarcinoma, dosed 52 weeks, study length 104 weeks
  TD50: 7.17 mg/kg/day
mouse, strain B6C3F1, males, site: lung, lesion: alveolar/bronchiolar adenoma + alveolar/bronchiolar carcinoma + adenocarcinoma, dosed 82 weeks, study length 104 weeks
  TD50: 19.2 mg/kg/day
mouse, strain B6C3F1, males, site: lung, lesion: alveolar/bronchiolar adenoma + alveolar/bronchiolar carcinoma, dosed 13 weeks, study length 104 weeks
  TD50: 8.59 mg/kg/day
mouse, strain B6C3F1, males, site: lung, lesion: alveolar/bronchiolar adenoma + alveolar/bronchiolar carcinoma, dosed 26 weeks, study length 104 weeks
  TD50: 13.4 mg/kg/day
mouse, strain B6C3F1, males, site: lung, lesion: alveolar/bronchiolar adenoma + alveolar/bronchiolar carcinoma, dosed 40 weeks, study length 104 weeks
  TD50: 11 mg/kg/day
mouse, strain B6C3F1, males, site: lung, lesion: alveolar/bronchiolar adenoma + alveolar/bronchiolar carcinoma, dosed 52 weeks, study length 104 weeks
  TD50: 7.25 mg/kg/day
mouse, strain B6C3F1, males, site: lung, lesion: alveolar/bronchiolar adenoma + alveolar/bronchiolar carcinoma, dosed 60 weeks, study length 60 weeks
  TD50: 65.9 mg/kg/day
mouse, strain B6C3F1, males, site: lung, lesion: alveolar/bronchiolar adenoma + alveolar/bronchiolar carcinoma, dosed 82 weeks, study length 104 weeks
  TD50: 19.6 mg/kg/day
mouse, strain B6C3F1, males, site: lung, lesion: alveolar/bronchiolar adenoma, dosed 13 weeks, study length 104 weeks
  TD50: 17.1 mg/kg/day
mouse, strain B6C3F1, males, site: lung, lesion: alveolar/bronchiolar adenoma, dosed 26 weeks, study length 104 weeks
  TD50: 17.3 mg/kg/day
mouse, strain B6C3F1, males, site: lung, lesion: alveolar/bronchiolar adenoma, dosed 40 weeks, study length 104 weeks
  TD50: 18.1 mg/kg/day
mouse, strain B6C3F1, males, site: lung, lesion: alveolar/bronchiolar adenoma, dosed 52 weeks, study length 104 weeks
  TD50: 9.13 mg/kg/day
mouse, strain B6C3F1, males, site: lung, lesion: alveolar/bronchiolar adenoma, dosed 60 weeks, study length 60 weeks
  TD50: 96.9 mg/kg/day
mouse, strain B6C3F1, males, site: lung, lesion: alveolar/bronchiolar adenoma, dosed 82 weeks, study length 104 weeks
  TD50: 33.2 mg/kg/day
mouse, strain B6C3F1, males, site: lung, lesion: alveolar/bronchiolar carcinoma + adenocarcinoma, dosed 13 weeks, study length 104 weeks
  TD50: 14.1 mg/kg/day
mouse, strain B6C3F1, males, site: lung, lesion: alveolar/bronchiolar carcinoma + adenocarcinoma, dosed 52 weeks, study length 104 weeks
  TD50: 13 mg/kg/day
mouse, strain B6C3F1, males, site: lung, lesion: alveolar/bronchiolar carcinoma + adenocarcinoma, dosed 82 weeks, study length 104 weeks
  TD50: 32.4 mg/kg/day
mouse, strain B6C3F1, males, site: lung, lesion: alveolar/bronchiolar carcinoma, dosed 26 weeks, study length 104 weeks
  TD50: 17.8 mg/kg/day
mouse, strain B6C3F1, males, site: lung, lesion: alveolar/bronchiolar carcinoma, dosed 40 weeks, study length 104 weeks
  TD50: 16.3 mg/kg/day
mouse, strain B6C3F1, males, site: lung, lesion: alveolar/bronchiolar carcinoma, dosed 60 weeks, study length 60 weeks
  TD50: 312 mg/kg/day
mouse, strain B6C3F1, males, site: preputial gland, lesion: adenoma + carcinoma + carcinoma, bilateral, dosed 13 weeks, study length 104 weeks
  TD50: 119 mg/kg/day
mouse, strain B6C3F1, males, site: preputial gland, lesion: adenoma + carcinoma + carcinoma, bilateral, dosed 26 weeks, study length 104 weeks
  TD50: 27.1 mg/kg/day
mouse, strain B6C3F1, males, site: preputial gland, lesion: adenoma + carcinoma + carcinoma, bilateral, dosed 40 weeks, study length 104 weeks
  TD50: 351 mg/kg/day
mouse, strain B6C3F1, males, site: preputial gland, lesion: carcinoma + carcinoma, bilateral, dosed 13 weeks, study length 104 weeks
  TD50: 167 mg/kg/day
mouse, strain B6C3F1, males, site: preputial gland, lesion: carcinoma + carcinoma, bilateral, dosed 26 weeks, study length 104 weeks
  TD50: 27.1 mg/kg/day
mouse, strain B6C3F1, males, site: preputial gland, lesion: carcinoma + carcinoma, bilateral, dosed 40 weeks, study length 104 weeks
  TD50: 351 mg/kg/day
mouse, strain B6C3F1, males, site: preputial gland, lesion: carcinoma + carcinoma, bilateral, dosed 52 weeks, study length 104 weeks
  TD50: 20.1 mg/kg/day
mouse, strain B6C3F1, males, site: preputial gland, lesion: carcinoma, NOS + squamous-cell carcinoma, dosed 60 weeks, study length 60 weeks
  TD50: 403 mg/kg/day
mouse, strain B6C3F1, males, site: preputial gland, lesion: carcinoma, dosed 82 weeks, study length 104 weeks
  TD50: 384 mg/kg/day
mouse, strain B6C3F1, males, site: preputial gland, lesion: squamous-cell carcinoma, dosed 60 weeks, study length 60 weeks
  TD50: 538 mg/kg/day
mouse, strain B6C3F1, males, site: subcutaneous tissue, lesion: hemangiosarcoma, dosed 82 weeks, study length 104 weeks
  TD50: 666 mg/kg/day
rat, strain Charles River CD (Sprague-Dawley), females, site: mammary gland, lesion: benign tumor, dosed 105 weeks, study length 105 weeks
  TD50: 182 mg/kg/day
rat, strain Charles River CD (Sprague-Dawley), females, site: mammary gland, lesion: malignant tumor, dosed 105 weeks, study length 105 weeks
  TD50: 7720 mg/kg/day
rat, strain Charles River CD (Sprague-Dawley), females, site: mammary gland, lesion: several types, types named in the paper, dosed 105 weeks, study length 105 weeks
  TD50: 133 mg/kg/day
rat, strain Charles River CD (Sprague-Dawley), females, site: thyroid gland, lesion: follicular-cell adenoma, dosed 105 weeks, study length 105 weeks
  TD50: 8270 mg/kg/day
rat, strain Charles River CD (Sprague-Dawley), males, site: any site (literature study), lesion: one or several types, types not named, dosed 111 weeks, study length 111 weeks
  TD50: 1470 mg/kg/day
rat, strain Charles River CD (Sprague-Dawley), males, site: pancreas, lesion: exocrine adenoma, dosed 111 weeks, study length 111 weeks
  TD50: 9310 mg/kg/day
rat, strain Charles River CD (Sprague-Dawley), males, site: testis, lesion: Leydig-cell tumor, dosed 111 weeks, study length 111 weeks
  TD50: 7550 mg/kg/day

From PubChem BioAssay AID1745844 (Carcinogenic Potency Database (CPDB), 2022)
